US9073858B2, “Methods of targeted drug development” (priority 2010, dated 2015)
Entries after “also recorded” stand apart in the source; their conditions may differ. Like-named read-outs stand apart in the source and are kept apart here.

Key:
[1] = tested on: A549 cells; assay: A549 Cell Proliferation Assay (MTT); assay type: cell-based
Method: Cell proliferation is determined using the MTT assay. The MTT cell proliferation assay is a colorimetric assay system which measures the reduction of a tetrazolium component (MTT) into an insoluble formazan product by the mitochondria of viable cells. After incubation of the cells with the MTT reagent, DMSO is added to solubilize the colored crystals and the samples read at a wavelength of 560 nm. The amount of color produced is directly proportional to the number of viable cells. […] L11939) was prepared at 5 mg/ml in PBS. […] Plates were read on the PolarStar plate reader at 560 nm. […] IC50 values were calculated in GraphPad Prism using non-linear regression curve fitting. All statistical analyses was done either in GraphPad Prism or Microsoft Excel. […] Briefly, compounds are added to cells plated in 96-well plates. The cells are allowed to grow for 72 hours before MTT treatment. The effect of the compounds on cell proliferation is analyzed using GraphPad Prism. A549 cells are a non-small cell lung cancer cell line that have wild type EGFR and p53 but have point mutations in KRAS gene which transform it into an oncogene. […] SH30071.03, lot no. ATB31500), 1% Pen Strep (Gibco, cat no. […] On day 2, working solutions of compounds at 200× were prepared. […] Plates were incubated for 72 hours before analyzing them with MTT (as described above).

[2] = Stability on incubation with mouse liver microsomes (MLM); assay type: in vitro ADME; details: for stability toward liver microsome incubation: mouse and human liver microsomes (MLM, HLM); for MLM % Remaining@ 30 Min: percentage left after incubation with mouse liver microsomes for 30 minutes
Method: (§1) Stability of hydroxyquinoline analogs were determined (see e.g., TABLE 18). MLM represents the percentage left after incubation with mouse liver microsomes for 30 minutes. HLM represents the percentage left after incubation with human liver microsomes for 30 minutes.
(§2) Stability of analogs having a benzaldehyde derived ring were determined (see e.g., TABLE 18). MLM represents the percentage left after incubation with mouse liver microsomes for 30 minutes. HLM represents the percentage left after incubation with human liver microsomes for 30 minutes.

[3] = tested on: HT-29 cells; assay: HT-29 Cell Proliferation Assay (MTT); assay type: cell-based; details: read-out: IC50 Value (μM) HT-29 Cells
Method: (§3) Cell proliferation is determined using the MTT assay. The MTT cell proliferation assay is a colorimetric assay system which measures the reduction of a tetrazolium component (MTT) into an insoluble formazan product by the mitochondria of viable cells. After incubation of the cells with the MTT reagent, DMSO is added to solubilize the colored crystals and the samples read at a wavelength of 560 nm. The amount of color produced is directly proportional to the number of viable cells.
(§4) 3-(4,5-Dimethylthiazol-2-yl)-2,5-diphenyltetrazolium Bromide (MTT) dye (Aesar, cat no. L11939) was prepared at 5 mg/ml in PBS. To each well, 20 μl of MTT solution was added to existing media and mixed thoroughly with 5 mins of gentle shaking at room temperature. Plates were incubated at 37° C., 5% CO2 for approximately 2 hrs. After 2-3 hrs incubation, media was aspirated out and plates were patted dry. […] Plates were incubated at 37° C., 5% CO2 for 10 min and mix thoroughly with 5 mins of gentle shaking at room temperature. Plates were read on the PolarStar plate reader at 560 nm. Percent (%) inhibition was calculated as 100%−(OD560 nm experimental-blank)×100%/OD560 nm control-blank. Blank=wells+serum free media+0.5% DMSO. Experimental=wells+cells+treatment+0.5% DMSO. Control=wells+cells+0.5% DMSO. IC50 values were calculated in GraphPad Prism using non-linear regression curve fitting. All statistical analyses was done either in GraphPad Prism or Microsoft Excel.
Briefly, compounds are added to cells plated in 96-well plates. […] The effect of the compounds on cell proliferation is analyzed using GraphPad Prism.
HT-29 cells are a colon cancer cell line that is utilized to assess the ability of compounds to inhibit the proliferation of cells in tumors of the colon.
For the HT-29 cell proliferation assay, on day 1, HT-29 cells are seeded at 3,000 cells/well in 100 μl media containing 10% FBS, 1× Pen-Strep, and 1× L-Glutamine in 96 well, tissue culture-treated plates. […] Working solutions of compounds were prepared (at […] in 100% DMSO). To 200 μl media, 20 μl of a 5× compound (diluted in plain media) was added for a final DMSO concentration of 0.5%. […] On day 5, plates were analyzed for cell growth using the MTT assay.

[4] = tested on: H1975 cells; assay: H1975 Cell Proliferation Assay (MTT); assay type: cell-based; details: read-out: IC50 Value (μM) H1975 Cells
Method: as §3, §4
Briefly, compounds are added to cells plated in 96-well plates. The cells are allowed to grow for 72 hours before MTT treatment. The effect of the compounds on cell proliferation is analyzed using GraphPad Prism.

[5] = Stability on incubation with human liver microsomes (HLM); assay type: in vitro ADME; details: percentage left after incubation with human liver microsomes for 30 minutes
Method: as §1, §2

[6] = tested on: DNA fragmentation in A549 cells; assay: DNA Fragmentation Assay (Cell Death Detection ELISA); assay type: cell-based; details: for activation at 1 µM / activation at 10 µM / Emax at 1 µM / Emax at 10 µM: Homo sapiens; for activation at 1 µM / activation at 10 µM: A549, 24 h, read-out: % Increase over Background; for Emax at 1 µM / Emax at 10 µM: A549, read-out: % Increase Relative to Staurosporin; for induction of apoptosis in A549 cells (DNA fragmentation assay): 10 μM, FIG. 15
[7] = Homo sapiens, A549, 72 h, read-out: IC50 Value (μM) A549 Cells
[8] = Homo sapiens, A549, read-out: IC50, cell proliferation in A549 or H1975 cells
[9] = Homo sapiens, NCI-H1975, MTT, 72 hours

Row | SMILES | IC50 [1, 7] [µM] | MLM % Remaining@ 30 Min [2] [%] | IC50 ([3]; Homo sapiens, HT-29, 72 h) [µM] | IC50 ([4]; Homo sapiens, NCI-H1975, 72 h) [µM] | HLM % Remaining@ 30 Min [5] [%] | further results
1 | Cc1cc(Cl)cnc1NC(c1ccc(C(F)(F)F)cc1)c1ccc2cccnc2c1O (centres unmarked) [AD4-13041] | 0.11 | 81 | 1.1 | 0.17 | 100 | stability toward liver microsome incubation [2]: increased stability
2 | Cc1cc(Cl)cnc1NC(c1ccc(C(F)(F)F)cc1F)c1ccc2cccnc2c1O (centres unmarked) [AD4-13042] | 0.11 | 99 | 1.3 | 0.13 | 101 | stability toward liver microsome incubation [2]: increased stability
3 | Oc1c(C(Nc2ccc(Cl)cn2)c2cccc(Cl)c2Cl)ccc2cccnc12 (centres unmarked) [AD4-13086] | 0.16 | 37 | 1.2 | 0.15 | 72 | 
4 | Oc1c(C(Nc2ccc(Cl)cn2)c2cc(Cl)ccc2Cl)ccc2cccnc12 (centres unmarked) [AD4-13095] | 0.11 | 60 | 5.4 | 0.44 | 88 | 
5 | Cc1cc(NC(c2ccc(Cl)c(C(F)(F)F)c2)c2ccc3cccnc3c2O)ncc1Cl (centres unmarked) [AD4-13108] | 0.14 | 25 | 3.3 | 0.3 | 93 | 
6 | Oc1c(C(Nc2ccc(F)cn2)c2cc(Cl)cc(Cl)c2Cl)ccc2cccnc12 (centres unmarked) [AD4-13111] | 0.14 | 87 |  | 0.37 | 92 | IC50 [3]: 8.9 µM
7 | Cc1cc(Cl)cnc1NC(c1cc(Cl)cc(Cl)c1)c1ccc2cccnc2c1O (centres unmarked) [AD4-13131] | 0.1 | 83 | 0.92 | 0.1 | 100 | IC50 [1, 8]: ≤ 0.1 µM
8 | Oc1c(C(Nc2ccc(F)cn2)c2cc(Cl)cc(Cl)c2Cl)ccc2cccnc12 (centres unmarked) [AD4-13132] |  | 66 |  |  | 98 | IC50 ([1]; read-out: IC50 Value (μM) A549 Cells): 0.17 µM; IC50 [3]: 1.6 µM; IC50 [4]: 0.31 µM
9 | Cc1cc(Cl)cnc1NC(c1cc(Cl)ccc1Cl)c1ccc2cccnc2c1O (centres unmarked) [AD4-13137] | 0.16 |  | 0.78 | 0.12 |  | activation at 1 µM [6]: 182%; activation at 10 µM [6]: 628%; Emax at 1 µM [6]: 18%; Emax at 10 µM [6]: 55%
10 | Oc1c(C(Nc2ncc(Cl)cc2F)c2ccc(Cl)cc2Cl)ccc2cccnc12 (centres unmarked) [AD4-13143] | 0.13 | 76 | 1.1 | 0.13 | 96 | 
11 | Oc1c(C(Nc2ncc(Cl)cc2F)c2ccc(Cl)c(Cl)c2)ccc2cccnc12 (centres unmarked) [AD4-13150] | 0.14 | 85 | 1.9 | 0.45 | 100 | 
12 | Cc1cc(NC(c2cccc(Cl)c2Cl)c2ccc3cccnc3c2O)ncc1Cl (centres unmarked) [AD4-13153] | 0.19 | 62 | 0.79 | 0.19 | 96 | 
13 | Oc1c(C(Nc2ccc(C(F)(F)F)cn2)c2cccc(C(F)(F)F)c2)ccc2cccnc12 (centres unmarked) [AD4-13164] |  |  |  |  |  | activation at 1 µM [6]: 525%; activation at 10 µM [6]: 788%; Emax at 1 µM [6]: 39%; Emax at 10 µM [6]: 58%
14 | Oc1c(C(Nc2ncc(C(F)(F)F)cc2F)c2ccc(Cl)cc2Cl)ccc2cccnc12 (centres unmarked) [AD4-13165] | 0.16 | 100 | 5 | 0.14 | 100 | stability toward liver microsome incubation [2]: increased stability; also recorded: good stability; induction of apoptosis in A549 cells (DNA fragmentation assay) [6]: induce apoptosis
15 | Oc1c(C(Nc2cc(Cl)c(Cl)cn2)c2cccc(Cl)c2Cl)ccc2cccnc12 (centres unmarked) [AD4-13172] | 0.14 | 80 | 1.3 | 0.15 | 100 | 
16 | Oc1c(C(Nc2ncc(F)cc2F)c2cc(Cl)cc(Cl)c2)ccc2cccnc12 (centres unmarked) [AD4-13176] |  |  |  |  |  | induction of apoptosis in A549 cells (DNA fragmentation assay) [6]: induce apoptosis
17 | Oc1c(C(Nc2cc(Cl)c(Cl)cn2)c2ccc(Cl)c(Cl)c2)ccc2cccnc12 (centres unmarked) [AD4-13177] | 0.14 | 86 | 1.5 | 0.27 | 86 | 
18 | Oc1c(C(Nc2cc(Cl)c(Cl)cn2)c2ccc(Cl)cc2Cl)ccc2cccnc12 (centres unmarked) [AD4-13178] | 0.084 | 83 | 0.79 | 0.19 | 100 | IC50 [1, 8]: ≤ 0.1 µM; apoptotic activity ([6]; Caspase, DNA Fragmentation, Annexin-V): increased apoptotic activity
19 | Oc1c(C(Nc2cc(Cl)c(Cl)cn2)c2cc(Cl)ccc2Cl)ccc2cccnc12 (centres unmarked) [AD4-13179] | 0.14 |  | 4.1 | 0.14 |  | induction of apoptosis in A549 cells (DNA fragmentation assay) [6]: induce apoptosis
20 | Cc1cc(Cl)ccc1NC(c1ccc(Cl)c(Cl)c1)c1ccc2cccnc2c1O (centres unmarked) [AD4-13204] |  |  |  |  |  | IC50 ([1]; Homo sapiens, A549, MTT, 72 hours, read-out: IC50 Value (μM) A549 Cells): 0.19 µM; IC50 ([3]; Homo sapiens, HT-29, MTT, 72 hrs): 4.5 µM; IC50 [4, 9]: 1.4 µM
21 | Cc1nc(NC(c2ccc(Cl)cc2Cl)c2ccc3cccnc3c2O)c(Cl)cc1Cl (centres unmarked) [AD4-13206] | 0.074 | 93 | 2.1 | 0.36 | 99 | IC50 [1, 8]: ≤ 0.1 µM; stability toward liver microsome incubation [2]: increased stability; also recorded: good stability
22 | Cc1nc(NC(c2cc(Cl)cc(Cl)c2Cl)c2ccc3cccnc3c2O)ccc1Cl (centres unmarked) [AD4-13209] | 0.17 |  | 2.3 | 0.14 |  | 
23 | Cc1nc(NC(c2cccc(Cl)c2Cl)c2ccc3cccnc3c2O)c(Cl)cc1Cl (centres unmarked) [AD4-13211] | 0.082 |  | 2 | 0.16 |  | IC50 [1, 8]: ≤ 0.1 µM
24 | Cc1cc(Cl)cnc1NC(c1ccc(Cl)cc1Cl)c1cc(Cl)c2cccnc2c1O (centres unmarked) [AD4-13212] | 0.13 |  | 3.5 |  |  | IC50 [4, 9]: 0.16 µM
25 | CCc1cc(Cl)cnc1NC(c1ccc(Cl)cc1)c1ccc2cccnc2c1O (centres unmarked) [AD4-13225] |  |  |  |  |  | activation at 1 µM [6]: 702%; activation at 10 µM [6]: 697%; Emax at 1 µM [6]: 52%; Emax at 10 µM [6]: 52%
